Source: patent publication CN104546697A, “一种右旋布洛芬注射液药物组合物及其制备方法” (CHENGDU EASTON PHARMACEUTICAL Co Ltd, priority 2013, dated 2015)

How the values were obtained:
[1] = background art; cited from earlier work
[2] = test system: carrageenan-induced rise of body temperature in rats [大鼠角叉菜胶诱导的体温升高]; test: Effect on carrageenan-induced rise of body temperature in rats; type: in vivo, SD rat; conditions: rat, IV
[3] = test system: pain threshold in the mouse hot plate method [小鼠热板法痛阈]; test: Effect on pain threshold in the mouse hot plate method; type: in vivo, Kunming mouse, female; conditions: IV, dose exceeding 80mg/kg

Row | SMILES | pharmacological activity [1] | pharmacological activity relative to levorotatory ibuprofen [1] | pharmacological activity relative to racemate [1] | dose range with the best, dose-dependent effect ([2]; carrageenan-induced rise of body temperature) | temperature-lowering effect above the best dose range ([2]; dose exceeding 40mg/kg) | analgesic effect above the best dose range [3]
1 | CC(C)Cc1ccc([C@@H](C)C(=O)O)cc1 [左旋布洛芬] | 非活性成分 |  |  |  |  | 
2 | CC(C)Cc1ccc([C@H](C)C(=O)O)cc1 [右旋布洛芬] |  | 160 fold | 1.6 fold | 7.5~30 mg/kg | 降温效果反而减弱 | 镇痛效果反而减弱
